Laboratory results published in US20100190737A1, “COMPOSITIONS COMPRISING INOSINE AND OROTIC ACID AND METHODS OF USE THEREOF FOR THE TREATMENT OF CERTAIN HEART CONDITIONS AND ENHANCEMENT OF WORK CAPACITY” (NUTRITIONAL RESEARCH GROUP LLC, priority 2009, published 2010).

Experiments:
mice = assay: Short term (14 day) work capacity: swimming lengths within 30 minutes, hepatic glycogen; assay type: in vivo, mouse; settings: for Swimming lengths / increase in number of swimming lengths: 14 days
Description: Seventy two animals (mice) were divided into 12 groups of 6 animals each; a control group (untreated) and 11 test groups that were intragastrically administered varying daily doses of inosine, potassium orotate or an inosine plus potassium orotate combination (the “combination”) for 14 days. […] The swimming exercise consisted of forcing the animals to perform repetitive swimming in a three meter long channel until exhaustion. The level of exhaustion was determined by a count of the number of swimming lengths which each animal did within 30 minutes. A lower number of swimming lengths indicated a greater level of exhaustion, whereas a higher number of lengths indicated a greater work capacity.

[1] = tested on: rats with experimental aortic stenosis; assay: Short term (7 day) experimental aortic stenosis: heart weight and swimming to exhaustion; assay type: in vivo, rat; settings: EAS rats; for Heart Weight: intragastric daily
Description: There are two 7 day experiments in this portion of the study; a preliminary 7 day study with 54 rats in 9 groups (6 rats per group) to determine optimal dosage levels for the separate inosine or potassium orotate ingredients for farther experimentation by determination of maximal heart weight development and work capacity; and then a study with 30 rats in 5 groups (6 rats per group) using the optimal single ingredient dosage levels for comparison with the results of a composition of the ingredients. All compounds were administered intragastrically through a tube after being dissolved in approximately 1 ml of water.
A single control group received a sham operation, while the rest of the groups received experimental aortic stenosis (“EAS”) operations (all according to Beznak in Journal Physiol. (Lond.) 120.23P, 1953 as modified by Kogan, Bull eksper. Biol. Med., 26:112, 1961 and then the other 13 groups received various treatments and dosages of inosine or potassium orotate or a composition of the two ingredients after the optimal inosine and potassium orotate dosages were determined. All animals were tested at the beginning and end of the experiment for swimming to exhaustion times with a 7.5% body weight load attached to their tails.
Sach compound, i.e., inosine and potassium orotate, was administered at different doses and the level of heart hypertrophy and work capacity was observed. Each of the compounds was evaluated in four doses: 12.5 mg/kg, 25 mg/kg, 50 mg/kg and 100 mg/kg body weight. Six animals were used in each group for inosine [4 groups] and potassium orotate [4 groups] plus the one control group (sham operated, no treatment); 54 animals in total.
Thirty white rats were divided into 5 groups (6 animals in each group). Group I was a sham-operated control group, Group II animals with experimental aortic stenosis but were untreated, Groups III, IV & V animals, all with experimental aortic stenosis received by an intragastric tube each day, either inosine (25 mg/kg body weight), potassium orotate (50 mg/kg body weight) or an composition of inosine (25 mg/kg body weight) plus potassium orotate (50 mg/kg body weight), respectively.

white rats = assay: Long-term (6 months) work capacity in trained and non-trained rats; settings: untrained rats
Description: Seventy two white rats were randomly placed in 6 groups (12 animals each), to test the effectiveness of training and to determine morphological and physiological alterations in the rats. In Group I, control rats were nontrained and not administered either of inosine or the combination of inosine and orotate; Group II comprised non-trained rats to which were administered inosine (25 mg/kg/body weight; Group III comprised non-trained rats to which were administered the combination of inosine plus potassium orotate (25 mg/kg/body weight of inosine and 50 mg/kg/body weight potassium orotate); Group IV comprised trained rats that were not administered either of inosine or the combination of inosine and orotate; Group V comprised trained rats to which was administered inosine alone (25 mg/kg/body weight), and Group VI comprised trained rats to which was administered the combination of inosine plus potassium orotate (25 mg/kg/body weight of inosine and 50 mg/kg/body weight potassium orotate).
Training of rats consisted of their forced swimming in a water bath (28-30° C.) with a weight fixed on their backs (7.5% of the rat body weight). During the first two weeks the animals swam daily for 5-10 minutes, after which we determined the individual maximum time of swimming to exhaustion (i.e. maximum work capacity) for each animal and then calculated the mean maximum time for each group. After 2 weeks these initial maximum work capacity values were used for planning and performing additional swimming training.
The functional condition of the rats at rest was estimated from their work capacity (maximum swimming time), body weight increase, EKG tests, oxygen consumption and sodium and potassium levels in the myocardium in a relatively quiet state. The morphological state of the heart and other viscera were rated from their absolute and relative weights, and also from histological and histochemical examinations of the myocardium. Also determined were the amounts of glycogen in the m. quadriceps (quadriceps group of muscles) of the hip, the myocardium and the liver. All the quantitative results obtained were processed with conventional statistical procedures.

[2] = tested on: chinchilla rabbits with experimental myocardial infarction; assay: Experimentally-induced myocardial infarction (coronary artery ligation); assay type: in vivo, rabbit; settings: for NN of Animals With Necrosis: of 10 animals; for EKG Q: oral 100 mg/kg BW of each ingredient daily
Description: Histological, light microscopic methods of investigation have been employed to study the zone of necrosis, perinecrotic zone and myocardium regions spaced from the time of infarction by 7 and 14 days after the infarction event. Dynamic electrocardiographic observation over the animals was carried out during the first day and during the following 7 and 14 days. The study of the total cross-sectional patterns of a rabbit's heart has made it possible to precisely define these zones. The first Group of 10 animals was sham-operated without treatment (Group I, positive control-Intact, no MI). […] Group II animals were without treatment (negative control-MI Control).

patients with arrhythmia = assay: Case studies: patients with arrhythmia given inosine/magnesium orotate capsules; assay type: in vivo, human; settings: Example 5
Description: Another cardiac condition prevalent in the population is arrhythmia. Cardiac arrhythmia is characterized by an abnormal rate of cardiac muscle contractions. The rate of contractions may be too slow, too fast, too frequent or too infrequent. The present pharmaceutical composition stabilizes the cardiac arrhythmia.

[3] = seventh day, inosine 25 mg/kg BW, potassium orotate 50 mg/kg BW, alone or together
[4] = seventh day, inosine 25 mg/kg BW, potassium orotate 50 mg/kg BW, alone or together, listed as orotate

In the case of `O=C([O-])c1cc(=O)[nH]c(=O)[nH]1.[K+]` [potassium orotate], the Swimming lengths (mice; 25 mg/kg BW) is reported as 40.2, the “increase in number of swimming lengths” value (mice; 25 mg/kg/body weight daily) is reported as 60.7% and the Swimming lengths (mice; 50 mg/kg BW) is reported as 45.6. For the same compound, the “increase in number of swimming lengths” value (mice; 50 mg/kg/body weight daily) was 82.2%, the Swimming lengths (mice; 100 mg/kg BW) was 56.3 and the “increase in number of swimming lengths” value (mice; 100 mg/kg/body weight daily) was 125%. For the same compound, the Swimming lengths (mice; 200 mg/kg BW) was 44.6, the “increase in number of swimming lengths” value (mice; 200 mg/kg/body weight daily) was 78.3% and the “mean decrease of hepatic glycogen stores during the swimming exercise” value (mice; controls 67.5% from baseline) was 18.5%. For the same compound, the “increased hepatic glycogen content” value (mice; inosine 25 mg/kg, potassium orotate 50 mg/kg, or combination) was 18%, the swimming time ([1]; day 7, 12.5 mg/kg intragastrically, EAS control 15±5.0, sham 62±5.0) was 18 ± 4.0 min and the swimming time ([1]; day 7, 25 mg/kg) was 22 ± 3.0 min. The swimming time ([1]; day 7, 50 mg/kg) was 32 ± 3.0 min, the swimming time ([1]; day 7, 100 mg/kg) was 30 ± 3.0 min and the relative heart weight ([1]; seventh day, 12.5 mg/kg, EAS control 400±8.9, sham 300±5.0) was 420±6.0 mg/100 g. body weight. For the same compound, the relative heart weight ([1]; seventh day, 25 mg/kg) was 440±11 mg/100 g. body weight, the relative heart weight ([1]; seventh day, 50 mg/kg) was 460±16 mg/100 g. body weight and the relative heart weight ([1]; seventh day, 100 mg/kg) was 465±15 mg/100 g. body weight. The “swimming time” value [1, 3] was 33 ± 4 min, the “Heart Weight” value [1, 3] was 460±16 mg/100 gr BW and the “Heart Weight” value [1, 4] was 460 ± 16 mg/100 gr BW. For the same compound, the “swimming time” value [1, 4] was 33 ± 4.0 min, the “Heart weight after 6 mo.” value (white rats) was 304 ± 9.2 mg/100gk BW and the “Oxygen consumption End of experiment” value (white rats) was 27.0 ± 0.60 ml/min/kg BW. The “Swimming time Before” value (white rats) was 72 ± 4.0 min, the “Glycogen in m. quadriceps, After work” value (white rats; end of experiments) was 488 ± 15.0 and the “Glycogen in m. quadriceps, In rest” value (white rats; end of experiments) was 860 ± 16.0. The “Swimming time After 6 mo.” value (white rats; INO 25 mg/kg, PO 50 mg/kg) was 80 ± 4.2 min.

In the case of `O=C(O)c1cc(=O)[nH]c(=O)[nH]1` [orotic acid], the “Thickness of Left Ventricular Wall” value ([2]; Day 7) is reported as 5.0 ± 0.61 mm, the “EKG QRS” value ([2]; Day 7, 100 mg/kg BW each) is reported as 0.07 ± 0.003 s and the “EKG R” value ([2]; Day 7, 100 mg/kg BW each) is reported as 4.2 ± 0.030 mm. The “NN of Animals With Necrosis” value ([2]; Day 7, MI control 10) was 5, the “EKG Q” value ([2]; Day 7) was 1.0 ± 0.02 mm and the “EKG QRS” value ([2]; Day 14) was 0.06 ± 0.016 s. The “EKG R” value ([2]; Day 14) was 4.4 ± 0.27 mm, the “Thickness of Left Ventricular Wall” value ([2]; Day 14) was 5.4 ± 0.23 mm and the “NN of Animals With Necrosis” value ([2]; Day 14, MI control 3) was 0. For the same compound, the “EKG Q” value ([2]; Day 14) was 0.6 ± 0.05 mm, the reduction in necroses ([2]; administered individually, 100 mg/kg) was 50% and the “hemorrhages or infiltration in the infarction zone” value ([2]; by the fourteenth day) was “virtually had no hemorrhages or infiltration in the infarction zone”. The “restoration of EKG readings” value ([2]; by the seventh experimental day) was “nearly a complete restoration of the voltage of EKG waves and of the systolic index”.

`CCC(=O)O[C@@H](O[P@](=O)(CCCCc1ccccc1)CC(=O)N1C[C@H](C2CCCCC2)C[C@H]1C(=O)[O-])C(C)C.[Na+]` [Monopril] was tested, and the “blood pressure (systolic over diastolic)” value (patients with arrhythmia; 10 mg Monopril with 50 mg Toprol daily, one month, from 165/105) was 150/95 and the “blood pressure (systolic over diastolic)” value (patients with arrhythmia; Monopril increased to 20 mg) was 145/90.

`COCCc1ccc(OCC(O)CNC(C)C)cc1` (centres unmarked) [Toprol] was tested, and the “arrhythmia episodes per week” value (patients with arrhythmia; 50 mg Toprol daily, one month, from 3-4 times weekly) was 2-3 per week.
